Molecules are shown by their SMILES.

One may read the IC50 as the concentration that gives 50% inhibition.

One test addresses T1, GLUT1 (Homo sapiens, UniProt P11166).
T1 sequence (P11166 1-492): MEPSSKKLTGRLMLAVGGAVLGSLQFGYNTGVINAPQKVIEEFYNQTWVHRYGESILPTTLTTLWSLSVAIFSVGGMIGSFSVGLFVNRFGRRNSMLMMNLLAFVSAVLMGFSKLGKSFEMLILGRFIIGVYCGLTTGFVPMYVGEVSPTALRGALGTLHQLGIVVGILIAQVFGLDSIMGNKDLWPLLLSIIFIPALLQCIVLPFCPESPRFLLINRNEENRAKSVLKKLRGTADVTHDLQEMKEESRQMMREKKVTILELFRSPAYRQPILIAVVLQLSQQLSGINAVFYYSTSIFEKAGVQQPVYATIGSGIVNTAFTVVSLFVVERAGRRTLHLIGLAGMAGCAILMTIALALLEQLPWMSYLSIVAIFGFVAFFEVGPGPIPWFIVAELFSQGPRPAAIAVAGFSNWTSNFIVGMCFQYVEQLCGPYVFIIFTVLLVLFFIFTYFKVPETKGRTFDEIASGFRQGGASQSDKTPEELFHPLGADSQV
The experiment in a line: Indirect measurement of GLUT1 activity by quantification of intracellular ATP levels (glucose induced ATP increase). Further details: endogenous in cells; host or cells: DLD1 or CHO-K1. The test is classed as cell-based. The settings on record: DLD1 cells; 0.1 mM glucose, 1 μM Rotenone, 15 min; CellTiter-Glo ATP readout; IC50 values standardized to cytochalasin B IC50 values; read-out: IC50 regarding glucose induced ATP increase (GLUT1 inhibition). The method, boiled down:
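Intracellular ATP was measured by CellTiter-Glo luminescence as an indirect readout of transport: glucose-driven for GLUT1, fructose-driven for GLUT2. DLD1 or CHO-K1 cells were used alongside an oxidative phosphorylation inhibitor. Beforehand, cells were held overnight in glucose-free 1% FCS medium to deplete ATP.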
For orientation: ATP-based viability assays read luminescence as a measure of living cells.
As for `Cc1c(NC(=O)c2cc(C(N)=O)nc3cc(F)ccc23)c(C(F)(F)F)nn1Cc1ccc(C#N)nc1` [Example 290, N^4-{1-[(6-cyanopyridin-3-yl)methyl]-5-methyl-3-(trifluoromethyl)-1H-pyrazol-4-yl}-7-fluoroquinoline-2,4-dicarboxamide], the IC50 was found to be 31.7 nM.
In the case of `Cc1nn(Cc2ccc(F)cc2)c(C)c1NC(=O)c1cc(C(F)(F)F)nc2ccccc12` [Example 181, N-[1-(4-fluorobenzyl)-3,5-dimethyl-1H-pyrazol-4-yl]-2-(trifluoromethyl)quinoline-4-carboxamide], the IC50 worked out at 93.8 nM.
In the case of `Cc1nn(CCc2ccc(F)cc2)c(C)c1NC(=O)c1cc(C(F)(F)F)nc2ccc(Br)cc12` [Example 1129], the IC50 is 86.6 nM.

Staying with this test, now noted: read-out: IC50 regarding glucose induced ATP increase (GLUT1 inhibition).
On to `Cc1nn(Cc2ccc(C#N)cc2F)c(C)c1NC(=O)c1cc(C(N)=O)nc2cc(F)c(F)cc12` [Example 298, N^4-[1-(4-cyano-2-fluorobenzyl)-3,5-dimethyl-1H-pyrazol-4-yl]-6,7-difluoroquinoline-2,4-dicarboxamide], for which the IC50 is 1 nM.
Take `Cc1c(NC(=O)c2cc(C(N)=O)nc3cc(F)c(Cl)cc23)c(C(F)(F)F)nn1Cc1cc(C(C)C)no1` [Example 1554]: the IC50 worked out at 116 nM.
On to `CC(=O)c1cccc(Cn2nc(C(F)(F)F)c(NC(=O)c3cc(C(N)=O)nc4cc(F)ccc34)c2C)c1` [Example 1619], for which the IC50 was 40.1 nM.
On the same count and under the same terms, for `Cc1c(NC(=O)c2cc(C(N)=O)nc3ccccc23)c(C(F)(F)F)nn1Cc1ccc(OC(F)(F)F)cc1` [Example 1465] the value was 5.1 nM; for `Cc1c(NC(=O)c2cc(C(N)=O)nc3cc(F)c(Cl)cc23)c(C(F)(F)F)nn1Cc1ccc(C#N)cc1F` [Example 303, 6-chloro-N^4-[1-(4-cyano-2-fluorobenzyl)-5-methyl-3-(trifluoromethyl)-1H-pyrazol-4-yl]-7-fluoroquinoline-2,4-dicarboxamide], 1.8 nM.
In the case of `COc1ccc2nc(C3CC3)cc(C(=O)Nc3c(C)nn(Cc4ccc(F)cc4)c3C)c2c1` [Example 233, 2-cyclopropyl-N-[1-(4-fluorobenzyl)-3,5-dimethyl-1H-pyrazol-4-yl]-6-methoxyquinoline-4-carboxamide], the concentration for half-maximal inhibition (IC50) came to 7.2 nM.
Turning to `Cc1cc(C(=O)Nc2c(C)nn(Cc3ccc(F)c(F)c3)c2C)c2cc(Br)ccc2n1` [Example 185, 6-bromo-N-[1-(3,4-difluorobenzyl)-3,5-dimethyl-1H-pyrazol-4-yl]-2-methylquinoline-4-carboxamide], the IC50 was 122 nM.
In the case of `Cc1c(NC(=O)c2cc(C(F)(F)F)nc3cc(F)c(F)cc23)c(C(F)(F)F)nn1Cc1ccc(C#N)cc1` [Example 182, N-[1-(4-cyanobenzyl)-5-methyl-3-(trifluoromethyl)-1H-pyrazol-4-yl]-6,7-difluoro-2-(trifluoromethyl)quinoline-4-carboxamide], the half-maximal inhibitory concentration (IC50) was found to be 101 nM.
As for `Cc1nn(Cc2ccc(F)c(Cl)c2)c(C)c1NC(=O)c1cc(C(F)(F)F)nc2cc(F)c(F)cc12` [Example 191, N-[1-(3-chloro-4-fluorobenzyl)-3,5-dimethyl-1H-pyrazol-4-yl]-6,7-difluoro-2-(trifluoromethyl)quinoline-4-carboxamide], the IC50 was found to be 171 nM.
On to `Cc1nn(Cc2nccn2C)c(C)c1NC(=O)c1cc(C(F)(F)F)nc2ccc(Br)cc12` [Example 1524], for which the IC50 was determined as 2020 nM.
Take `Cc1c(NC(=O)c2cc(C(F)(F)F)nc3ccc(Br)cc23)c(C(F)(F)F)nn1Cc1ccncc1C#N` [Example 1105]: the IC50 was determined as 48.2 nM.
Same read-out and setting: for `Cc1cc(F)ccc1Cn1nc(C(F)(F)F)c(NC(=O)c2cc(C(N)=O)nc3cc(F)ccc23)c1C` [Example 1710] the value was 3.8 nM.
Take `COc1ccc(Cn2nc(C)c(NC(=O)c3cc(C(N)=O)nc4cc(F)c(F)cc34)c2C)cc1` [Example 226, 6,7-difluoro-N^4-[1-(4-methoxybenzyl)-3,5-dimethyl-1H-pyrazol-4-yl]quinoline-2,4-dicarboxamide]: the IC50 worked out at 4 nM.
Turning to `COc1cc(C(=O)Nc2c(C)nn(Cc3ccccc3F)c2C)c2ccccc2n1` [Example 77, N-[1-(2-fluorobenzyl)-3,5-dimethyl-1H-pyrazol-4-yl]-2-methoxyquinoline-4-carboxamide], the half-maximal inhibitory concentration (IC50) is 204 nM.
Still for that read-out and setting: for `Cc1c(NC(=O)c2cc(C(N)=O)nc3ccccc23)c(C(F)(F)F)nn1Cc1ccccc1OC(F)(F)F` [Example 1705] the value was 172 nM; for `Cc1c(NC(=O)c2cc(C(N)=O)nc3cccc(F)c23)c(C(F)(F)F)nn1Cc1ccc(C(F)(F)F)cc1` [Example 1591], 16.6 nM; for `Cc1nn(Cc2cccc(C#N)c2)c(C)c1NC(=O)c1cc(C(F)(F)F)nc2c(Cl)cc(Cl)cc12` [Example 91, 6,8-dichloro-N-[1-(3-cyanobenzyl)-3,5-dimethyl-1H-pyrazol-4-yl]-2-(trifluoromethyl)quinoline-4-carboxamide], 292 nM.
Same read-out and setting: then `Cc1ccc2nc(C)cc(C(=O)Nc3c(C)nn(CC4CCCCC4)c3C)c2c1` [Example 206, N-[1-(cyclohexylmethyl)-3,5-dimethyl-1H-pyrazol-4-yl]-2,6-dimethylquinoline-4-carboxamide], with 667 nM.
The same measure, in the same setting: for `Cc1nn(Cc2ccc(C#N)nc2)c(C)c1NC(=O)c1cc(C(N)=O)nc2ccccc12` [Example 225, N^4-{1-[(6-cyanopyridin-3-yl)methyl]-3,5-dimethyl-1H-pyrazol-4-yl}quinoline-2,4-dicarboxamide] the value was 14 nM.
As to `Cc1nn(Cc2ccc(F)cc2)c(C)c1NC(=O)c1cc(C2CC2)nc2ccc(C(F)(F)F)cc12` [Example 79, 2-cyclopropyl-N-[1-(4-fluorobenzyl)-3,5-dimethyl-1H-pyrazol-4-yl]-6-(trifluoromethyl)quinoline-4-carboxamide], the IC50 was 225 nM.
The same measure, in the same setting: then `COc1ccc(CCn2nc(C)c(NC(=O)c3cc(C(N)=O)nc4cc(F)c(Cl)cc34)c2C)cc1` [Example 1346], with 10.6 nM.
For `Cc1cc(Cn2nc(C)c(NC(=O)c3cc(C(N)=O)nc4ccccc34)c2C)no1` [Example 1503], the half-inhibitory concentration (IC50) stood at 93.2 nM.
For `COc1cc(C(=O)Nc2c(C)nn(Cc3ccncc3C#N)c2C)c2ccccc2n1` [Example 1189], the 50% inhibitory concentration (IC50) came to 310 nM.
Turning to `Cc1nn(Cc2ccc(F)c(F)c2)c(C)c1NC(=O)c1cc(C2CC2)nc2ccc(F)cc12` [Example 162, 2-cyclopropyl-N-[1-(3,4-difluorobenzyl)-3,5-dimethyl-1H-pyrazol-4-yl]-6-fluoroquinoline-4-carboxamide], the IC50 came to 24.8 nM.
`COc1cccc(Cn2nc(C)c(NC(=O)c3cc(C(N)=O)nc4cc(F)c(Cl)cc34)c2C)c1` [Example 1453]: the half-maximal inhibitory concentration (IC50) amounted to 1.4 nM.
As for `COc1cc(C(=O)Nc2c(C(F)(F)F)nn(Cc3ccc(C#N)cc3)c2C)c2cc(F)ccc2n1` [Example 1376], the half-maximal inhibitory concentration (IC50) was 18.9 nM.
Regarding `Cc1nn(Cc2ccc(S(C)(=O)=O)cc2)c(C)c1NC(=O)c1cc(C(N)=O)nc2cc(F)ccc12` [Example 1483], the IC50 was 48.8 nM.
With `Cc1nn(C(C)c2ccccc2)c(C)c1NC(=O)c1cc(C(N)=O)nc2cc(F)c(Cl)cc12` (racemic) [Example 1363], the concentration for half-maximal inhibition (IC50) was determined as 1.8 nM.

The record behind these values is patent publication US20170037028A1 (BAYER PHARMA AKTIENGESELLSCHAFT, priority 2013, published 2017).
